Experimental data published in patent US20200131129A1, “FARNESOID X RECEPTOR AGONISTS AND USES THEREOF” (Metacrine, Inc., priority 2017, published 2020).

Each compound was assayed against T1, hFXR (Homo sapiens, UniProt Q96RI1) (assay: In Vitro FXR Assay (TK): hFXR/hRXR TK-ECRE-luc reporter in transfected CV-1 cells). Conditions: CV-1 cells transfected with hFXR, hRXR, 18 hrs incubation, luminescence, maximum efficacy <25% of Fexarmine control also classified as ‘+’.
T1 construct: expressed in transfected cells; host or cells: CV-1 cells
T1 sequence (Q96RI1 1-486): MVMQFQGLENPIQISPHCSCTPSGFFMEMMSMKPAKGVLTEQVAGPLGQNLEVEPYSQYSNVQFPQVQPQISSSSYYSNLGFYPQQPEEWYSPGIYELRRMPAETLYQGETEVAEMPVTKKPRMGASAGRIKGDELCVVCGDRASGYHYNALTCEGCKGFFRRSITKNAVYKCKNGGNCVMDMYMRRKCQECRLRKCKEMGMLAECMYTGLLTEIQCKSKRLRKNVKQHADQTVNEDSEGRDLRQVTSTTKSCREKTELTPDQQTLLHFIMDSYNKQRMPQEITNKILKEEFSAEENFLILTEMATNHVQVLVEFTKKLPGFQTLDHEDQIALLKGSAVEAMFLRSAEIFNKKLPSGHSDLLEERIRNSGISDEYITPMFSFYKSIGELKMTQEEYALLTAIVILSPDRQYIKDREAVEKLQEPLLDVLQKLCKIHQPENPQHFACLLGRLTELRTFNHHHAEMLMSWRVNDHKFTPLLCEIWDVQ
T1 sequence (P19793 1-462 partner): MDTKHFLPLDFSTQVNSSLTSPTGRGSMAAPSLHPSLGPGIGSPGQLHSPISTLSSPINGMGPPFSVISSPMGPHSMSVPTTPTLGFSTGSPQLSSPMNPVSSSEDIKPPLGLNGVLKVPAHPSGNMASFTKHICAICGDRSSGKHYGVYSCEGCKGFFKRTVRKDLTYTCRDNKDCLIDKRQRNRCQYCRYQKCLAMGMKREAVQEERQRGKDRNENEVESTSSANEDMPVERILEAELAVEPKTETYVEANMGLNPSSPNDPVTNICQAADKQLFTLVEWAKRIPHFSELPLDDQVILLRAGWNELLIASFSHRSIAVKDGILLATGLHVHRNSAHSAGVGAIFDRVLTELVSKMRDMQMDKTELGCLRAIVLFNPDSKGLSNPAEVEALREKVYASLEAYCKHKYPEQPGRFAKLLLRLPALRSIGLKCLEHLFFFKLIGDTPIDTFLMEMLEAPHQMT
Assay type: cell-based
Experimental: Example B-1: In Vitro FXR Assay (TK)
CV-1 cells were seeded at a density of 2,000,000 cells in a T175 flask with DMEM+10% charcoal double-stripped FBS and incubated at 37° C. in 5% CO2 for 18 h (O/N).
After 18 h of incubation, the medium in the T175 flask was changed with fresh DMEM+10% charcoal super-stripped serum. In a polypropylene tube, 2500 μL OptiMEM (Life Technologies, Cat #31985-062) was combined with expression plasmids for hFXR, hRXR, TK-ECRE-luc and pCMX-YFP. The tube was then briefly vortexed and incubated at room temperature for 5 minutes. Transfection reagent (X-tremeGENE HP from Roche, Cat #06 366 236 001) was added to the OptiMEM/plasmid mixture vortexed and incubated at room temperature for 20 minutes. Following incubation, the transfection reagent/DNA mixture complex was added to cells in the T175 flask and the cells were incubated at 37° C. in 5% CO2 for 18 h (0/N).
Compounds were serially diluted in DMSO and added to transfected CV-1 cells. The cells were then incubated for 18 hrs. The next day cells were lysed and examined for luminescence.

| Structure (SMILES) | EC50 |
| --- | --- |
| COc1ccc([C@H]2CC[C@H](CN(c3cccc(-c4cnn(C)n4)c3)C(=O)[C@H]3CC[C@H](O)CC3)CC2)cc1C [Compound 2.09, trans-4-Hydroxy-N-((trans-4-(4-methoxy-3-methylphenyl)cyclohexyl)methyl)-N-(3-(2-methyl-2H-1,2,3-triazol-4-yl)phenyl)cyclohexanecarboxamide] | ≥ 1000 nM |
| COc1ccc([C@H]2CC[C@H](CN(c3cccc(-c4ncn(C)n4)c3)C(=O)[C@H]3CC[C@H](O)CC3)CC2)cc1C [Compound 2.10, trans-4-Hydroxy-N-((trans-4-(4-methoxy-3-methylphenyl)cyclohexyl)methyl)-N-(3-(1-methyl-1H-1,2,4-triazol-3-yl)phenyl)cyclohexanecarboxamide] | ≥ 1000 nM |
| COc1ccc([C@H]2CC[C@H](CN(c3cccc(-c4cn(C)cn4)c3)C(=O)[C@H]3CC[C@H](O)CC3)CC2)cc1C [Compound 2.11, trans-4-Hydroxy-N-((trans-4-(4-methoxy-3-methylphenyl)cyclohexyl)methyl)-i-(3-(1-methyl-1H-imidazol-4-yl)phenyl)cyclohexanecarboxamide] | ≥ 1000 nM |
| COc1ccc([C@H]2CC[C@H](CN(c3cccc(-c4nsc(C5CC5)n4)c3)C(=O)[C@H]3CC[C@H](O)CC3)CC2)cc1C [Compound 2.12, trans-N-(3-(5-Cyclopropyl-1,2,4-thiadiazol-3-yl)phenyl)-4-hydroxy-N-((trans-4-(4-methoxy-3-methylphenyl)cyclohexyl)methyl)cyclohexanecarboxamide] | 500 to 1000 nM |
| COc1ccc([C@H]2CC[C@H](CN(c3cccc(-c4cnc(N(C)C)cn4)c3)C(=O)[C@H]3CC[C@H](O)CC3)CC2)cc1C [Compound 2] | ≤ 500 nM |
| COc1ccc([C@H]2CC[C@H](CN(c3cccc(-c4cc(C)no4)c3)C(=O)[C@H]3CC[C@H](O)CC3)CC2)cc1C [Compound 3, trans-4-Hydroxy-N-((trans-4-(4-methoxy-3-methylphenyl)cyclohexyl)methyl)-N-(3-(3-methylisoxazol-5-yl)phenyl)cyclohexanecarboxamide] | ≤ 500 nM |
| COc1ccc([C@H]2CC[C@H](CN(c3cccc(-c4ncco4)c3)C(=O)[C@H]3CC[C@H](O)CC3)CC2)cc1C [Compound 3.01, trans-4-Hydroxy-N-((trans-4-(4-methoxy-3-methylphenyl)cyclohexyl)methyl)-N-(3-(oxazol-2-yl)phenyl)cyclohexanecarboxamide] | ≥ 1000 nM |
| COc1ccc([C@H]2CC[C@H](CN(c3cccc(-n4ccc(C)c4)c3)C(=O)[C@H]3CC[C@H](O)CC3)CC2)cc1C [Compound 4] | ≤ 500 nM |
| COc1ccc([C@H]2CC[C@H](CN(c3cccc(-c4nnn(C)n4)c3)C(=O)[C@H]3CC[C@H](O)CC3)CC2)cc1C [Compound 5, trans-4-Hydroxy-N-((trans-4-(4-methoxy-3-methylphenyl)cyclohexyl)methyl)-N-(3-(2-methyl-2H-tetrazol-5-yl)phenyl)cyclohexanecarboxamide] | ≥ 1000 nM |
| COc1ccc([C@H]2CC[C@H](CN(c3cccc(-c4nnc(C)o4)c3)C(=O)[C@H]3CC[C@H](O)CC3)CC2)cc1C [Compound 6, trans-4-Hydroxy-N-((trans-4-(4-methoxy-3-methylphenyl)cyclohexyl)methyl)-N-(3-(5-methyl-1,3,4-oxadiazol-2-yl)phenyl)cyclohexanecarboxamide] | ≥ 1000 nM |
| COc1ccc([C@H]2CC[C@H](CN(c3cccc(-n4cnc(C)n4)c3)C(=O)[C@H]3CC[C@H](O)CC3)CC2)cc1C [Compound 7, trans-4-Hydroxy-N-((trans-4-(4-methoxy-3-methylphenyl)cyclohexyl)methyl)-N-(3-(3-methyl-1-1,2,4-triazol-1-yl)phenyl)cyclohexanecarboxamide] | 500 to 1000 nM |
| COc1ccc([C@H]2CC[C@H](CN(c3cccc(-n4cnc(C5CC5)n4)c3)C(=O)[C@H]3CC[C@H](O)CC3)CC2)cc1C [Compound 7.01, trans-N-(3-(3-Cyclopropyl-1H-1,2,4-triazol-1-yl)phenyl)-4-hydroxy-N-((trans-4-(4-methoxy-3-methylphenyl)cyclohexyl)methyl)cyclohexanecarboxamide] | ≤ 500 nM |
| COc1ccc([C@H]2CC[C@H](CN(c3cccc(-c4cnc(C)o4)c3)C(=O)[C@H]3CC[C@H](O)CC3)CC2)cc1C [Compound 8, trans-4-Hydroxy-N-((trans-4-(4-methoxy-3-methylphenyl)cyclohexyl)methyl)-N-(3-(2-methyloxazol-5-yl)phenyl)cyclohexanecarboxamide] | ≤ 500 nM |
| COc1ccc([C@H]2CC[C@H](CN(c3cccc(-c4cc(C5CC5)ns4)c3)C(=O)[C@H]3CC[C@H](O)CC3)CC2)cc1C [Compound 9, trans-N-(3-(3-Cyclopropylisothiazol-5-yl)phenyl)-4-hydroxy-N-((trans-4-(4-methoxy-3-methylphenyl)cyclohexyl)methyl)cyclohexanecarboxamide] | ≤ 500 nM |
| COc1ccc([C@H]2CC[C@H](CN(c3cccc(-n4cnc(C)c4)c3)C(=O)[C@H]3CC[C@H](O)CC3)CC2)cc1C [Compound 9.01, trans-4-Hydroxy-N-((trans-4-(4-methoxy-3-methylphenyl)cyclohexyl)methyl)-N-(3-(4-methyl-1H-imidazol-1-yl)phenyl)cyclohexanecarboxamide] | 500 to 1000 nM |
| COc1ccc([C@H]2CC[C@H](CN(c3cccc(-c4nc(C)no4)c3)C(=O)[C@H]3CC[C@H](O)CC3)CC2)cc1C [Compound 9.02, trans-4-Hydroxy-N-((trans-4-(4-methoxy-3-methylphenyl)cyclohexyl)methyl)-N-(3-(3-methyl-1,2,4-oxadiazol-5-yl)phenyl)cyclohexanecarboxamide] | 500 to 1000 nM |
| COc1ccc([C@H]2CC[C@H](CN(c3cccc(-c4nc(C)co4)c3)C(=O)[C@H]3CC[C@H](O)CC3)CC2)cc1C [Compound 9.03, trans-4-Hydroxy-N-((trans-4-(4-methoxy-3-methylphenyl)cyclohexyl)methyl)-N-(3-(4-methyloxazol-2-yl)phenyl)cyclohexanecarboxamide] | ≥ 1000 nM |
| COc1ccc([C@H]2CC[C@H](CN(c3cccc(-c4coc(C)n4)c3)C(=O)[C@H]3CC[C@H](O)CC3)CC2)cc1C [Compound 9.04, trans-4-Hydroxy-N-((trans-4-(4-methoxy-3-methylphenyl)cyclohexyl)methyl)-N-(3-(2-methyloxazol-4-yl)phenyl)cyclohexanecarboxamide] | ≤ 500 nM |
| COc1ccc([C@H]2CC[C@H](CN(c3cccc(-n4nnc(C)n4)c3)C(=O)[C@H]3CC[C@H](O)CC3)CC2)cc1C [Compound 9.05, trans-4-Hydroxy-N-((trans-4-(4-methoxy-3-methylphenyl)cyclohexyl)methyl)-N-(3-(5-methyl-2H-tetrazol-2-yl)phenyl)cyclohexanecarboxamide] | 500 to 1000 nM |
| CCc1cc(-c2cccc(N(C[C@H]3CC[C@H](c4ccc(OC)c(C)c4)CC3)C(=O)[C@H]3CC[C@H](O)CC3)c2)ns1 [Compound 9.06, trans-N-(3-(5-Ethylisothiazol-3-yl)phenyl)-4-hydroxy-N-((trans-4-(4-methoxy-3-methylphenyl)cyclohexyl)methyl) cyclohexanecarboxamide] | ≤ 500 nM |
| COc1ccc([C@H]2CC[C@H](CN(c3cccc(-c4ncsn4)c3)C(=O)[C@H]3CC[C@H](O)CC3)CC2)cc1C [Compound 9.07, trans-N-(3-(1,2,4-Thiadiazol-3-yl)phenyl)-4-hydroxy-N-((trans-4-(4-methoxy-3-methylphenyl)cyclohexyl)methyl) cyclohexanecarboxamide] | 500 to 1000 nM |
